Test results from paper PMC11314205, “Incorporation of an Isohexide Subunit into the Endochin-like Quinolone Scaffold” (Molecules, 2024).
Converted amounts (≈) assume the structure as drawn. “Also recorded” adds a separate entry of the source. Read-outs that look alike come from different tables or passages of the source.

Legend:
D6 = test system: D6; set-up: method as in PMID 24720377; conditions: strain D6; cited from earlier work
Dd2 = test system: Dd2; set-up: method as in PMID 24720377; conditions: strain Dd2; cited from earlier work
Tm90-C2B = test system: Tm90-C2B; set-up: method as in PMID 24720377; conditions: strain Tm90-C2B; cited from earlier work
[1] = test system: human hepatoma-derived HepG2 cells; set-up: method as in PMID 24720377; conditions: read-out: Cytotox. IC50; cited from earlier work
[2] = test system: chloroquine-sensitive Plasmodium falciparum strain 3D7 (MRA-102); experiment: In vitro screening against chloroquine-sensitive P. falciparum 3D7; type: cell-based
Method: (§1) The ELQs 14–17 were tested against the chloroquine-sensitive Plasmodium falciparum strain 3D7 (MRA-102), as provided by the MR4 Unit of the American Type Culture Collection (ATCC, Manassas, VA, USA). Details of the assay have been previously published. Cytotoxicity IC50 values for 14–17 were obtained on human BJ fibroblasts as previously described. [table]

[3] = Kinetic (report: thermodynamic) solubility in pH 7.4 phosphate buffer, quantitative LC-MS; type: physicochemical; conditions: phosphate buffer pH 7.4, room temperature, LC-MS (supplementary report); for solubility at 20 h: phosphate buffer, 23 °C, pH 7.4, aqueous buffer, thermodynamic from solid
Method: Title: Thermodynamic Solubility Study in Phosphate Buffer 7.4 Date: 02/24/2023 […]
The goal of this study is to determine the thermodynamic solubility values for compounds: JS -13, JS-14, JS-17 and JS-18 in phosphate buffer pH 7.4.
Compound ID Solubility (µM) Solubility (mg/mL)
The scope of the thermodynamic (equilibrium) solubility experiment is to investigate the solubility of the compounds in a saturated solution. For this method, phosphate buffer is added to solid compound and mixed at room temperature for […] to ensure that equilibrium is achieved. To determine concentrations to generate calibration curves and for the equilibrated compounds (in buffer) a general LC-MS method was developed. The method includes a high-resolution separation by a UPLC unit as well as a high sensitivity ion detection by a mass spectrometer equipped with an electrospray ionization probe. For calibration curves the compounds were dissolved in DMSO and diluted by ACN. The supernatant of the equilibrated samples, after a 2-step centrifugation process, were also diluted by ACN to ensure full solubilization.
(1 picture or pasted object on this page, not shown here)
The experiment was carried out as recommended by AstraZeneca’s Mechanistic Biology & Profiling, Discovery Sciences, R&D group (AstraZeneca, Gothenburg, Sweden). The method was published in ASSAY and Drug Development Technologies; Title: “A Fully Integrated Assay Panel for Early Drug Metabolism and […]
• The experiment was performed on December 3, 2022
A Shimadzu LC-40D XR HPLC system equipped with a PDA detector (Model: SPD-M40) and connected to an LCMS-2020 mass spectrometer was utilized for determining sample concentrations. For HPLC separation an XBridge C18 column (4.6x50 mm, […] particle size) from Waters Inc. was used, the column oven temperature was set at 40°C. To determine the concentration of the compounds, eluent A containing 0.1% trifluoroacetic acid (TFA) in water, eluent B containing 0.1% TFA in acetonitrile and a linear gradient (5-100% B in 3 min) were utilized. Molecular ions (MH+) were generated by combined ESI and APCI ionization methods and collected by a DUIS detector. The mass spectrometer was calibrated by standards provided by Shimadz u Scientific Instruments. Single ion monitoring (SIM) methods were used to maximize sensitivity for each compound as described in Table […]
Compound ID Primary Ion Secondary Ion Note
+ + 414.15+ is identical to MH+ generated
• To establish calibration curves, the weighted compounds were dissolved in 100 µL of dimethyl sulfoxide (DMSO) and diluted by 400 µL of acetonitrile (ACN). The stock solution was further diluted by ACN (5x, in 5 steps). For all LC-MS experiments 5 µL sample was injected. To perform equilibration studies, 500 µL phosphate buffer was added to each weighted compound. The results slurries were stirred at room temperature for 20 hr. After equilibration, the samples were transferred to […]
Eppendorf tubes and centrifuged for 30 min at 2,000 x g. 200 µL of the supernatant of each sample was transferred and centrifuged again f or 30 min at 2,000 x g. Dilution and LC-MS analyses were performed as described for the calibration curves.
ACN, DMSO and HPLC quality water were purchased from MilliporeSigma Inc.
TFA (99.9% purity) was from Chem-Impex International Inc.
• The data was archived in the MD&S Laboratory electronic notebook (ChemCart, DeltaSoft Inc.) on […]
• Data processing software used: Microsoft Office 365 – Excel.
3.1 Structures, molecular weights
Compound Chemical Exact SMILE
[C@]4([H])OC3)C=C2)=C(C)NC5=CC=C(Cl)C=C51
[H])OC3)C=C2)=C(C)NC5=CC=C(Cl)C=C51
4([H])OC3)C=C2)=C(C)NC5=CC=C(Cl)C=C51
C@]4([H])OC3)C=C2)=C(C)NC5=CC=C(Cl)C=C51
Table 2. Compound IDs, chemical formulas, exact (monoisotopic) molecular weights, SMILE notations

[4] = Cytotoxicity on BJ fibroblasts, CTG reagent; type: cell-based; conditions: human BJ fibroblasts, 72 h exposure at 37 °C, read-out: Cytotox. IC50
Method: as §1

[5] = Kinetic (report: thermodynamic) solubility in pH 7.4 phosphate buffer, quantitative LC-MS; type: physicochemical; conditions: 23 °C
[6] = set-up: method as in PMID 23515079; conditions: cited from earlier work
[7] = P. falciparum strain 3D7, read-out: EC50 (antimalarial potency)
[8] = chloroquine-sensitive P. falciparum strain 3D7, read-out: EC50

Structure (SMILES) | EC50 [2, 7] | solubility at 20 h ([3]; read-out: Solubility) | solubility at 20 h ([3]; read-out: Solubility (mg/mL)) | EC50 [2, 8] | IC50 at 72 h [4] | solubility thermodynamic at 20 h [5] | other results
Cc1[nH]c2ccc(Cl)cc2c(=O)c1-c1ccc(Oc2ccc(OC(F)(F)F)cc2)cc1 [C00002] |  |  |  |  |  |  | EC50 (D6): 0.0032 µM; EC50 (Dd2): 0.0056 µM; EC50 (Tm90-C2B): 0.0023 µM; IC50 [1]: > 10 µM
Cc1[nH]c2ccc(Cl)cc2c(=O)c1-c1ccc(O[C@H]2CO[C@H]3[C@@H]2OC[C@@H]3O)cc1 [Compound 15, 6-Chloro-3-(4-(((3S,3aR,6S,6aR)-6-hydroxyhexahydrofuro[3,2-b]furan-3-yl)oxy)phenyl)-2-methylquinolin-4(1H)-one] | > 1 µM | 95 µM | 0.039 mg/mL |  |  |  | 
CC(=O)O[C@H]1CO[C@H]2[C@@H]1OC[C@@H]2Oc1ccc(-c2c(C)[nH]c3ccc(Cl)cc3c2=O)cc1 [Compound 14, (3S,3aR,6S,6aR)-6-(4-(6-Chloro-2-methyl-4-oxo-1,4-dihydroquinolin-3-yl)phenoxy)hexahydrofuro[3,2-b]furan-3-yl Acetate] | > 1 µM |  |  |  |  |  | Solubility (M) ([3]; listed as JS-13): Unstable in buffer; also recorded: hydrolyzed under equilibrating conditions; melting point: 298 to 299 °C
CO[C@H]1CO[C@H]2[C@@H]1OC[C@@H]2Oc1ccc(-c2c(C)[nH]c3ccc(Cl)cc3c2=O)cc1 [Compound 16, 6-Chloro-3-(4-(((3S,3aR,6S,6aR)-6-methoxyhexahydrofuro[3,2-b]furan-3-yl)oxy)phenyl)-2-methylquinolin-4(1H)-one] | > 1 µM | 22 µM | 0.009 mg/mL |  |  |  | 
COCCOC1COC2C(Oc3ccc(-c4c(C)[nH]c5ccc(Cl)cc5c4=O)cc3)COC12 (centres unmarked) [C00006] |  |  |  | > 1 µM | > 100 µM | 127 µM (≈ 59.9 µg/mL) | 
Cc1[nH]c2ccc(Cl)cc2c(=O)c1-c1ccc(OC2COC3C(O)COC23)cc1 (centres unmarked) [C00004] |  |  |  | > 1 µM | > 100 µM | 95 µM (≈ 39.3 µg/mL) | 
CC(=O)OC1COC2C(Oc3ccc(-c4c(C)[nH]c5ccc(Cl)cc5c4=O)cc3)COC12 (centres unmarked) [C00003] |  |  |  | > 1 µM | > 100 µM |  | 
COc1cc2[nH]c(C)c(-c3ccc(Oc4ccc(OC(F)(F)F)cc4)cc3)c(=O)c2cc1Cl [C00001] |  |  |  |  |  |  | EC50 (D6): 0.0022 µM; EC50 (Dd2): 0.0025 µM; EC50 (Tm90-C2B): 0.0014 µM; Kinetic Solubility [6]: 16 µM; IC50 [1]: > 10 µM
COC1COC2C(Oc3ccc(-c4c(C)[nH]c5ccc(Cl)cc5c4=O)cc3)COC12 (centres unmarked) [C00005] |  |  |  | > 1 µM | > 100 µM | 22 µM (≈ 9.41 µg/mL) | 
COCCO[C@H]1CO[C@H]2[C@@H]1OC[C@@H]2Oc1ccc(-c2c(C)[nH]c3ccc(Cl)cc3c2=O)cc1 [Compound 17, 6-Chloro-3-(4-(((3S,3aR,6S,6aR)-6-(2-methoxyethoxy)hexahydrofuro[3,2-b]furan-3-yl)oxy)phenyl)-2-methylquinolin-4(1H)-one] | > 1 µM | 127 µM | 0.06 mg/mL |  |  |  | 
